{
  "source": "patent US11466010B2",
  "about": "“Toll-like receptor 8 (TLR8) specific antagonists and methods of making and uses thereof” (The Regents of the University of Colorado, a body corporate, priority 2017, dated 2022)",
  "system": "TLR8 downstream proteins (p65, p-IRAK4, TRAF3, TRIF, IRF3)",
  "test": "Immunoblotting of TLR downstream signaling proteins in THP-1 cells treated with R848",
  "format": "cell-based, human",
  "method": "Immunoblotting: THP-1 cells were seeded in 6-well plates with a density of 2×10^6 cells/well in RPMI 1640 medium supplemented with 10% FBS, 100 U/mL penicillin, 100 μg/mL streptomycin (PenStrep), 2 mM L-glutamine, and 0.05 mM 2-mercaptoethanol. THP-1 cells were treated with phorbol-12-myristate-13-acetate (PMA) (100 ng/mL) and incubated in humidified incubators containing 5% CO2 at 37° C. for 24 h. […] After incubation of 2 h, THP-1 cells were collected, nuclear protein fraction was extracted using NE-PER Nuclear and Cytoplasmic Extraction kit (Thermo Fisher Scientific). BCA assay was then used to determine protein concentration. Protein samples were loaded and run in 10% Tris-glycine SDS-PAGE, and then transferred onto a nitro-cellulose membrane (BioRad) using electroblotting. P65 (CST; 8242) (1:1000) was then used as primary antibody, and peroxidase-conjugated AffiniPure Goat Anti-Rabbit IgG (H+L) antibody (Jackson Immuno Research; 111-035-144) (1:10000) as secondary antibody, then blots were visualized using Thermo SuperSignal West Pico kit (Thermo Fisher Scientific). Lamin A/C (CST; 2032) were used as internal controls for nuclear fractions.\nNext, the inventors carried out on-target validation for CU-CPT9a. […] By contrast, the expression of TRIF and IRF3 (cytoplasmic and nuclear) were only responsive to TLR4 and TLR3, independent of TLR8.",
  "data": [
    {"compound": "COc1ccc2c(-c3ccc(O)c(C)c3)ccnc2c1", "note": "[Compound 11a, 2-Methyl-4-(7-methoxyl-4-quinolinyl)-phenol]", "values": [
      {"measurement": "nuclear NF-κB", "setting": "500 nM", "value": "significant reduction"},
      {"measurement": "R848-induced elevation of downstream protein levels (p65, p-IRAK4, TRAF3)", "setting": "dose-dependent, 0, 5, 50, 500 nM, 2 h", "value": "reversed"}
    ]}
  ]
}
